Legend:
HL-60 = experiment: Anticancer activity against Homo sapiens (human) HL60 cells after 48 hr by CC108 microcell counter analysis; type: functional, cell-based; conditions: HL-60, 48 h
HBL-100 [1] = experiment: Ratio of compound IC50 to methotrexate IC50 for Homo sapiens (human) HBL100 cells after 72 hr by MTT assay; type: functional
HBL-100 [2] = experiment: Anticancer activity against Homo sapiens (human) HBL100 cells after 72 hr by MTT assay; type: functional, cell-based; conditions: HBL-100, 72 h
Aspergillus niger = experiment: Antimicrobial activity against Aspergillus niger assessed as growth inhibition after 24 hr by cup plate method; type: functional, organism-based
Candida albicans = experiment: Antimicrobial activity against Candida albicans assessed as growth inhibition after 24 hr by serial double dilution method; type: functional, organism-based
Vibrio cholerae = experiment: Antimicrobial activity against Vibrio cholerae assessed as growth inhibition after 24 hr by cup-plate method; type: functional, organism-based
Bacillus subtilis = experiment: Antimicrobial activity against Bacillus subtilis NCIM 2921 assessed as growth inhibition after 24 hr by serial double dilution method; type: functional, organism-based; conditions: NCIM 2921, 24 h
Staphylococcus aureus = experiment: Antimicrobial activity against Staphylococcus aureus NCIM 2079 assessed as growth inhibition after 24 hr by serial double dilution method; type: functional, organism-based; conditions: NCIM 2079, 24 h
Pseudomonas aeruginosa = experiment: Antimicrobial activity against Pseudomonas aeruginosa NCIM 2967 assessed as growth inhibition after 24 hr by serial double dilution method; type: functional, organism-based; conditions: NCIM 2967, 24 h
Escherichia coli = experiment: Antimicrobial activity against Escherichia coli NCIM 2068 assessed as growth inhibition after 24 hr by serial double dilution method; type: functional, organism-based; conditions: NCIM 2068, 24 h

SMILES	IC50 (HL-60) [µM]	Ratio IC50 (HBL-100 [1])	IC50 (HBL-100 [2]) [µM]	IC50 (Aspergillus niger) [µM]	IC50 (Candida albicans; read-out: IC50) [µM]	IC50 (Vibrio cholerae) [µM]	IC50 (Bacillus subtilis; read-out: IC50) [µM]	IC50 (Staphylococcus aureus) [µM]	IC50 (Pseudomonas aeruginosa) [µM]	IC50 (Escherichia coli) [µM]	IC50 (Bacillus subtilis) [µM]	IC50 (Candida albicans) [µM]
Oc1ccc(/C=N/NC(=S)N2CCNCC2)cc1	50	4.5	0.18	1.97	1.94	1.66	1.62	1.7	1.63	1.64		
C/C(=N\NC(=S)N1CCNCC1)c1ccc(O)cc1	60		0.54	3.55	2.56	1.59	3.49	1.58	3.51	3.48		
C/C(=N\NC(=S)N1CCNCC1)c1cccc([N+](=O)[O-])c1	62		0.99	1.56	2	0.86	0.32	0.86	0.6	0.57		
COc1ccc(/C=N/NC(=S)N2CCNCC2)cc1			1.62	2.09	2.15	1.53	0.66	0.79	1.57	1.59		
S=C(N/N=C/c1ccc(Cl)cc1)N1CCNCC1	69		1.6	2.14	1.85	0.6	0.13	0.54	0.6	1.52		
C/C(=N/NC(=S)N1CCNCC1)c1ccccc1			0.29	3.76	3.75	1.17	1.78	2.07	2.11	1.76		
S=C(N/N=C/c1ccccc1)N1CCNCC1	63		2.41	2.21	1.85	2.23	0.93	1.36	1.97	3.91		
C/C(=N\NC(=S)N1CCNCC1)c1ccc(Cl)cc1			0.26	3.32	3.37	0.78	0.98	1.04	0.71	0.88		
Cc1ccc(/C=N/NC(=S)N2CCNCC2)cc1	70		0.8	3.79	3.72	3.57	1.7	1.66	1.7	1.74		
S=C(NN=C(c1ccccc1)c1ccccc1)N1CCNCC1			0.34	1.62	1.47	1.38	1.38	1.33	1.44	3.03		
O=C(O)c1cn(C2CC2)c2cc(N3CCNCC3)c(F)cc2c1=O [CIPROFLOXACIN]						0.2		1.2	0.05		4.7	
OC(Cn1cncn1)(Cn1cncn1)c1ccc(F)cc1F [FLUCONAZOLE]				> 10								0.98
CN(Cc1cnc2nc(N)nc(N)c2n1)c1ccc(C(=O)N[C@@H](CCC(=O)O)C(=O)O)cc1 [METHOTREXATE]			0.04									

Source: ChEMBL document CHEMBL3045856, “Synthesis antimicrobial and anticancer activity of N-arylmethylidene-piperazine-1-carbothiohydrazide” (Med Chem Res, 2013)
